No end group written: not given here.
Tests used:
Sf9 insect cells = assay: Viability assay on Sf9 insect cells; assay type: cell-based, Spodoptera frugiperda; conditions: Sf9 cell viability assay, nM (SEM), HPLC purified tobacco-expressed isoforms
Method: Spodoptera frugiperda Sf9 cells were grown and used for viability assays, according to [23].

[1] = tested on: Sitophilus oryzae sensitive weevil strain WAA42; assay: Toxicity assay on weevils, sensitive strain WAA42 (survival analysis on food pellets); assay type: in vivo; conditions: adult S. oryzae, sensitive strain WAA42, fed food pellets (wheat flour and water) incorporating peptide at 400 µg.g−1, days +/− SEM, LT50 calculated with SIMFIT
Method: (§1) Rice weevils (Sitophilus oryzae, Coleoptera) were reared on wheat seeds at 27.5°C and 70% RH. Tests and survival analysis were performed on adults feeding on food pellets (composed of wheat flour and water) incorporating PA1b (extracted from pea seeds for control tests or produced in tobacco) at 400 µg.g^−1, as described in detail in [10]. LT50 values were calculated using the SIMFIT software (http://www.simfit.man.ac.uk). The PA1b resistant strain, ISOR3, was reared in an identical way except that the weevils were fed on pea seeds rather than on wheat seeds.

[2] = tested on: Sitophilus oryzae PA1b resistant strain ISOR3; assay: Toxicity assay on weevils, PA1b resistant strain ISOR3; assay type: in vivo; conditions: adult S. oryzae, PA1b resistant strain ISOR3, food pellets incorporating peptide at 400 µg.g−1
Method: as §1

**Q.** For “ASCNGVCSPFEMPPCGTSACRCIPVGLFIGYCRNPSG (also: bicyclic or more (positions not given here)) [Isoform 2.2, pea PA1b isoform 2 (GenBank AJ574794), non-oxidized Met form, expressed in tobacco]”, which “CL50 Sf9” value (Sf9 insect cells) is on record?
**A.** The value was 53 (16) nM.

**Q.** And the “TL50 WAA42” value [1]?
**A.** The value was 8.9+−0.6 days.

**Q.** What about the “TL50 ISOR3 (mortality on resistant strain)” value (from here on “TL50 ISOR3”) [2] of the same substance?
**A.** Its value is “no mortality”.

**Q.** How did the “CL50 Sf9” value (Sf9 insect cells) turn out when “ASCNGVCSPFEMoxPPCGSSACRCIPVGLLIGYCRNPSG (bicyclic or more) [Isoform 1, pea PA1b isoform (GenBank AJ574795) expressed in N. benthamiana with the PA1-cassette]” was run?
**A.** The value was 82 (24) nM.

**Q.** What about the “TL50 WAA42” value [1] of the same substance?
**A.** Its value is 9.2+−0.9 days.

**Q.** What about the “TL50 ISOR3” value [2] of the same substance?
**A.** The value was “no mortality”.

**Q.** With “ASCNGVCSPFEMoxPPCGSSACRCIPVGLVVGYCRHPSG (bicyclic or more) [Isoform 4, pea PA1b isoform (GenBank M13790 and AJ276882) expressed in tobacco]” as the substance, how does the “CL50 Sf9” value (Sf9 insect cells) read?
**A.** The value was 269 ± 50 nM.

**Q.** What about the “TL50 WAA42” value ([1]; listed as 4) of the same substance?
**A.** Its value is 12.9+−1.1 days.

**Q.** What about the “TL50 WAA42” value ([1]; listed as isoform 4) of the same substance?
**A.** The value was 12.9 ± 1.1 days.

**Q.** What about the “TL50 ISOR3” value [2] of the same substance?
**A.** Its value is “no mortality”.

**Q.** How did the “CL50 Sf9” value (Sf9 insect cells) turn out when “ASCNGVCSPFEMoxPPCGTSACRCIPVGLFIGYCRNPSG (bicyclic or more) [Isoform 2.1, pea PA1b isoform 2 (GenBank AJ574794), oxidized Met form, expressed in tobacco]” was run?
**A.** The value was 82 (36) nM.

**Q.** What about the “TL50 WAA42” value [1] of the same substance?
**A.** The value was 9.5+−0.7 days.

**Q.** What about the “TL50 ISOR3” value [2] of the same substance?
**A.** Its value is “no mortality”.

**Q.** For “ASCNGVCSPFEMoxPPCGTSACRCIPVGLVIGYCRNPSG (bicyclic or more) [Isoform 6, pea PA1b isoform (GenBank AJ574793) expressed in tobacco]”, which “CL50 Sf9” value (Sf9 insect cells) is on record?
**A.** Its value is 96 (22) nM.

**Q.** What about the “TL50 WAA42” value [1] of the same substance?
**A.** Its value is 8.9+−0.7 days.

**Q.** What about the “TL50 ISOR3” value [2] of the same substance?
**A.** Its value is “no mortality”.

**Q.** Which results are given for “ASCNGVCSPFEMoxPPCGTSACRCIPVGLVVGYCRNPSG (bicyclic or more) [Isoform 5, pea PA1b isoform (GenBank M13709) expressed in tobacco]”?
**A.** CL50 Sf9 (Sf9 insect cells): 99 (31) nM; TL50 WAA42 [1]: 9.35+−0.7 days; TL50 ISOR3 (mortality on resistant strain) [2]: no mortality

**Q.** How did the “CL50 Sf9” value (Sf9 insect cells; listed as 3) turn out when “ISCNGVCSPFDIPPCGSPLCRCIPAGLVIGNCRNPY G (bicyclic or more) [Isoform 3, pea PA1b isoform (GenBank AJ574796) expressed in tobacco]” was run?
**A.** The value was >1500 nM.

**Q.** And the “CL50 Sf9” value (Sf9 insect cells; listed as isoform 3)?
**A.** The value was “completely inactive”.

**Q.** And the “TL50 WAA42” value ([1]; listed as 3)?
**A.** The value was “no mortality”.

**Q.** What about the “TL50 WAA42” value ([1]; listed as isoform 3) of the same substance?
**A.** The value was “completely inactive”.

**Q.** And the “TL50 ISOR3” value [2]?
**A.** The value was “no mortality”.

— article PMC3859497, “Expression and Biological Activity of the Cystine Knot Bioinsecticide PA1b (Pea Albumin 1 Subunit b)” (PLoS ONE, 2013)
